Test results: ChEMBL document CHEMBL2385074, “Structure-activity relationship analysis of bufadienolide-induced in vitro growth inhibitory effects on mouse and human cancer cells” (J Nat Prod, 2013)
The source made the active and inactive calls. No cut-off for these calls is given here.

How the values were obtained:
[1] = Cytotoxicity against human Hs683 cells after 3 days by MTT assay; format: functional, cell-based; settings: Hs 683, 72 h
[2] = Cytotoxicity against mouse CT26.WT cells after 3 days by MTT assay; format: functional, cell-based; settings: 72 h
SK-MEL-28 [3] = test: Cytotoxicity against human SK-MEL-28 cells after 3 days by MTT assay; format: functional, cell-based; settings: SK-MEL-28, 72 h
PC-3 [4] = test: Cytotoxicity against human PC3 cells after 3 days by MTT assay; format: functional, cell-based; settings: PC-3, 72 h
A549 [5] = test: Cytotoxicity against human A549 cells after 3 days by MTT assay; format: functional, cell-based; settings: A549, 72 h
MCF7 [6] = test: Cytotoxicity against human MCF7 cells after 3 days by MTT assay; format: functional, cell-based; settings: MCF7, 72 h
[7] = Cytotoxicity against human U373 cells after 3 days by MTT assay; format: functional, cell-based, U-373MG ATCC; settings: U373 MG, 72 h
B16-F10 [8] = test: Cytotoxicity against mouse B16F10 cells after 3 days by MTT assay; format: functional, cell-based; settings: B16-F10, 72 h
Hs 683 = test: Cytotoxicity against human Hs683 cells at <= 10 uM after 3 days by MTT assay; format: functional, cell-based
U-373MG ATCC = test: Cytotoxicity against human U373 cells at <= 10 uM after 3 days by MTT assay; format: functional, cell-based
MCF7 [9] = test: Cytotoxicity against human MCF7 cells at <= 10 uM after 3 days by MTT assay; format: functional, cell-based
PC-3 [10] = test: Cytotoxicity against human PC3 cells at <= 10 uM after 3 days by MTT assay; format: functional, cell-based
CT26.WT = test: Cytotoxicity against mouse CT26.WT cells at <= 10 uM after 3 days by MTT assay; format: functional, cell-based
A549 [11] = test: Cytotoxicity against human A549 cells at <= 10 uM after 3 days by MTT assay; format: functional, cell-based
B16-F10 [12] = test: Cytotoxicity against mouse B16F10 cells at <= 10 uM after 3 days by MTT assay; format: functional, cell-based
SK-MEL-28 [13] = test: Cytotoxicity against human SK-MEL-28 cells at <= 10 uM after 3 days by MTT assay; format: functional, cell-based

SMILES | IC50 [1] [nM] | IC50 [2] [nM] | IC50 (SK-MEL-28 [3]) [nM] | IC50 (PC-3 [4]) [nM] | IC50 (A549 [5]) [nM] | IC50 (MCF7 [6]) [nM] | IC50 [7] [nM] | IC50 (B16-F10 [8]) [nM] | Activity (Hs 683) | Activity (U-373MG ATCC) | Activity (MCF7 [9]) | Activity (PC-3 [10]) | Activity (CT26.WT) | Activity (A549 [11]) | Activity (B16-F10 [12]) | Activity (SK-MEL-28 [13])
C[C@]12CC[C@H](O)C[C@H]1CC[C@@H]1C2=C(O)C(=O)[C@]2(C)[C@@H](c3ccc(=O)oc3)CC[C@]12O [ARGENTINOGENIN] | 9 | > 10000 | 70 | 43 | 53 | 36 | 86 | > 10000 | – | – | – | – | – | – | – | –
CC(=O)O[C@H]1CC[C@@]2(C)[C@H](CC[C@@H]3[C@@H]2[C@H](OC(C)=O)C(=O)[C@]2(C)[C@@H]4CC[C@]32OC4=O)C1 | – | – | – | – | – | – | – | – | inactive | inactive | inactive | inactive | inactive | inactive | inactive | inactive
C[C@]12CC[C@H](OC(c3ccccc3)c3ccccc3)C[C@@]1(O)CC[C@@H]1[C@@H]2CC[C@]2(C)[C@@H](C(=O)OC(c3ccccc3)c3ccccc3)CC[C@]12O | – | – | – | – | – | – | – | – | inactive | inactive | inactive | inactive | inactive | inactive | inactive | inactive
CC(=O)O[C@H]1CC[C@@]2(C)[C@H](CC[C@@H]3[C@@H]2[C@H](OC(C)=O)C(=O)[C@]2(C)[C@@H](c4ccc(=O)oc4)CC[C@]32O)C1 | 2620 | > 10000 | 7980 | > 10000 | 5910 | 7260 | 8810 | > 10000 | – | – | – | – | – | – | – | –
COC(=O)[C@H]1CC[C@]2(OC=O)[C@@H]3CC[C@@H]4C[C@@H](OC(C)=O)CC[C@]4(C)[C@H]3[C@H](OC(C)=O)C(=O)[C@]12C | – | – | – | – | – | – | – | – | inactive | inactive | inactive | inactive | inactive | inactive | inactive | inactive
COC(=O)[C@H]1CC[C@]2(O)[C@@H]3CC[C@@H]4C[C@@H](OC(C)=O)CC[C@]4(C)[C@H]3[C@H](OC(C)=O)[C@@H](OC(C)=O)[C@]12C | – | – | – | – | – | – | – | – | inactive | inactive | inactive | inactive | inactive | inactive | inactive | inactive
C[C@H]1O[C@@H](O[C@H]2[C@@H](O)C[C@H](O[C@H]3[C@@H](O)C[C@H](O[C@H]4CC[C@@]5(C)[C@H](CC[C@@H]6[C@@H]5C[C@@H](O)[C@]5(C)[C@@H](C7=CC(=O)OC7)CC[C@]65O)C4)O[C@@H]3C)O[C@@H]2C)C[C@H](O)[C@@H]1O [DIGOXIN] | 40 | > 10000 | 266 | 75 | 50 | 426 | 146 | > 10000 | – | – | – | – | – | – | – | –
C[C@]12CC[C@H]3[C@@H](CC[C@H]4C[C@@H](O)CC[C@@]43C=O)[C@@]1(O)CC[C@@H]2c1ccc(=O)oc1 | 40 | > 10000 | 336 | 2430 | 51 | 278 | 62 | > 10000 | – | – | – | – | – | – | – | –
C[C@@H]1O[C@@H](O[C@H]2CC[C@@]3(C)[C@H](CC[C@@H]4[C@@H]3[C@H](O)C[C@]3(C)[C@@H](c5ccc(=O)oc5)CC[C@]43O)C2)[C@H](O)[C@H](O)[C@H]1O | 2 | 877 | 5 | < 1 | < 1 | 8 | 3 | 659 | – | – | – | – | – | – | – | –
C[C@]12CCC(=O)C=C1CC[C@@H]1[C@@H]2CC[C@]2(C)[C@@H](c3ccc(=O)oc3)CC[C@]12O [SCILLARENONE] | 73 | > 10000 | 1610 | 284 | 333 | 341 | 399 | > 10000 | – | – | – | – | – | – | – | –
C[C@@H]1O[C@@H](O[C@H]2C[C@@H](O)[C@]3(CO)[C@H]4[C@H](O)C[C@]5(C)[C@@H](C6=CC(=O)OC6)CC[C@]5(O)[C@@H]4CC[C@]3(O)C2)[C@H](O)[C@H](O)[C@H]1O [OUABAIN] | 28 | > 10000 | 211 | 43 | 27 | 133 | 77 | > 10000 | – | – | – | – | – | – | – | –
